Assay results: PubChem BioAssay (NCI)
Several values for one entry are separate records, joined by “and”; a condition that tells them apart may be missing. Identical values can stand only once.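 Interpolation was linear, between the two tested concentrations surrounding the appropriate level; five concentrations were tested over 48 hours in 96-well plates. GI50: concentration for 50% inhibition of growth. TGI: total growth inhibition.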

Tests used:
Experiment in all cases: growth of human tumour cells (NCI), 48 h
HCC-2998 colon = system: HCC-2998 colon
U251 CNS = system: U251 CNS
MALME-3M melanoma = system: MALME-3M melanoma
DU-145 prostate = system: DU-145 prostate
PC-3 prostate = system: PC-3 prostate
K-562 leukemia = system: K-562 leukemia
OVCAR-3 ovarian = system: OVCAR-3 ovarian
NCI-H460 lung = system: NCI-H460 lung
SK-MEL-2 melanoma = system: SK-MEL-2 melanoma
SF-268 CNS = system: SF-268 CNS

SMILES | GI50 (HCC-2998 colon) | TGI (HCC-2998 colon) | GI50 (U251 CNS) | TGI (U251 CNS) | GI50 (MALME-3M melanoma) | TGI (MALME-3M melanoma) | GI50 (DU-145 prostate) | TGI (DU-145 prostate) | GI50 (PC-3 prostate) | TGI (PC-3 prostate) | GI50 (K-562 leukemia) | TGI (K-562 leukemia) | GI50 (OVCAR-3 ovarian) | TGI (OVCAR-3 ovarian) | GI50 (NCI-H460 lung) | TGI (NCI-H460 lung) | GI50 (SK-MEL-2 melanoma) | TGI (SK-MEL-2 melanoma) | GI50 (SF-268 CNS) | TGI (SF-268 CNS)
O=C1/C(=C/c2ccc(Cl)cc2)CN(C(=O)C(Cl)Cl)C/C1=C\c1ccc(Cl)cc1 | 0.182 µM | 0.345 µM | 0.052 µM | 0.186 µM | 0.23 µM | 0.759 µM | 0.357 µM | 1.31 µM | 0.199 µM | 0.686 µM | 0.0469 µM | > 68.9 µM | 0.151 µM | 0.407 µM | 0.274 µM | 0.822 µM | 1.18 µM | 3.07 µM | 0.315 µM | 1.48 µM
Cc1ccc(NC(=O)c2ccnc(N3CCCC3)c2)cc1-c1ccc(C(=O)NCC2CC2)cc1 | > 25 µM | > 25 µM | > 25 µM | > 25 µM | > 25 µM | > 25 µM | > 25 µM | > 25 µM | > 25 µM | > 25 µM | > 25 µM | > 25 µM | > 25 µM | > 25 µM | > 25 µM | > 25 µM | > 25 µM | > 25 µM | > 25 µM | > 25 µM
O=C1/C(=C/C(Cl)=C/c2ccccc2)SC(=S)N1CCc1ccc(O)cc1 | 1.91 µM | 3.72 µM | 1.23 µM | 2.66 µM | 1.44 µM | 3 µM | 1.6 µM | 3.28 µM | 2.1 µM | 7.42 µM | 2.17 µM | > 100 µM | 1.91 µM | 4.34 µM | 2.08 µM | 4.72 µM | 2.56 µM | 7.42 µM | 2.6 µM | 10.3 µM
CC(C)(O)[C@H]1[C@@H]2OC(=O)[C@H]1[C@]1(O)C[C@H]3OC34C(=O)O[C@H]2[C@@]41C (stereo partly drawn) (tested in a mixture with another compound) | – | > 100 µM | – | > 100 µM | – | > 100 µM | – | > 100 µM | – | > 100 µM | – | > 100 µM | – | > 100 µM | – | > 100 µM | – | > 100 µM | – | > 100 µM
CNC1C(O)CC(OC2C/C=C(\C)C/C(C)=C/C=C/CCC(C)CNC(=O)/C=C/C=C/C2C)OC1C (stereo not drawn) | – | 1.42 µM | – | 1.03 µM | – | 3 µM | – | 2.79 µM | – | 2.07 µM | – | 0.184 µM | – | 1.78 µM | – | 0.317 µM | – | 2.82 µM | – | 1.78 µM
ON(CCc1ccccn1)Cc1ccccc1 | – | > 100 µM | – | > 100 µM | – | > 100 µM | – | > 100 µM | – | > 100 µM | – | > 100 µM | – | > 100 µM | – | > 100 µM | – | > 100 µM | – | > 100 µM
O=C1C=CC2(C=C1)CCN=c1c(O)c3c(c(O)c12)=NC=N3 | 18.5 µM and > 100 µM | 32.6 µM and > 100 µM | 10.6 µM and > 100 µM | 24.1 µM and > 100 µM | – | 4.42 µM | 14.7 µM and > 100 µM | 28 µM and > 100 µM | 10.1 µM and > 100 µM | 35 µM and > 100 µM | – | 42.6 µM and > 100 µM | – | 25 µM and > 100 µM | 12.2 µM and > 100 µM | 30 µM and > 100 µM | – | 16 µM and > 100 µM | – | 26.8 µM and > 100 µM
Cn1cc(C2=C(c3c4n(c5ccccc35)CCC(CN)CC4)C(=O)NC2=O)c2ccccc21 (stereo not drawn) | 4.43 µM | 8.46 µM | 3.74 µM | 7.21 µM | 3.8 µM | 7.88 µM | 4.55 µM | 8.21 µM | 3.39 µM | 7.95 µM | 4.72 µM | 11.9 µM | 4.31 µM | 8.75 µM | 4.21 µM | 8.19 µM | 4.02 µM | 8.25 µM | 4.02 µM | 7.7 µM
COc1cccc2c1c1nc3cc(C)c(C)cc3nc1n2CCN(C)C | 1.42 µM | 3.65 µM | 2.21 µM | 11.7 µM | 1.14 µM | 2.62 µM | 3.01 µM | 12.1 µM | 1.73 µM | 11.6 µM | 0.982 µM | 9.12 µM | 2.22 µM | – | 1.09 µM | 10.9 µM | 1.85 µM | 4.39 µM | 2.13 µM | 7.45 µM
Cc1cccc(N=C2c3cc([N+](=O)[O-])ccc3-c3c2cc([N+](=O)[O-])cc3[N+](=O)[O-])c1 | 6.45 µM | 18.7 µM | 2.57 µM | 7.41 µM | 4.82 µM | 21.2 µM | 3.24 µM | 11 µM | 5.02 µM | 21.6 µM | 2.9 µM | 10.5 µM | 2.95 µM | – | 3.64 µM | 14.4 µM | 7.39 µM | 32.1 µM | 6.33 µM | 40.8 µM
O=C(O)c1cccc(CC(Br)C(=O)O)c1 (stereo not drawn) | – | > 100 µM | – | > 100 µM | – | > 100 µM | – | > 100 µM | – | > 100 µM | – | > 100 µM | – | > 100 µM | – | > 100 µM | – | > 100 µM | – | > 100 µM
COc1ccc(-c2nc(-c3nc4cc(C)c(C)cc4[nH]3)cc3c2[nH]c2ccccc23)cc1 | 3.88 µM | 94.8 µM | 3.04 µM | 16.6 µM | 4.6 µM | 16.5 µM | 8.53 µM | > 100 µM | 2.77 µM | 44 µM | 3.36 µM | 20.9 µM | 2.25 µM | 4.6 µM | 3.49 µM | > 100 µM | 3.28 µM | 8.25 µM | 12.7 µM | > 100 µM
O=C(O)CCC1CCC(c2cc(F)ccc2F)(S(=O)(=O)c2ccc(Cl)cc2)CC1 (stereo not drawn) | 38 µM and > 75.4 µM | > 100 µM | 32.7 µM and > 100 µM | > 100 µM | 10.2 µM and > 100 µM | 96.4 µM and > 100 µM | 93.4 µM and > 100 µM | > 100 µM | 75.8 µM and > 100 µM | > 100 µM | 34.6 µM and 34.7 µM | > 100 µM | 22.7 µM and > 100 µM | 63.5 µM and > 100 µM | 42.5 µM and > 100 µM | > 100 µM | 20.1 µM and > 100 µM | 69.7 µM and > 100 µM | 48.3 µM and > 100 µM | > 100 µM
CO[C@H]1CC[C@@]2(C)C(=CC[C@H]3[C@@H]4C[C@H](O)C[C@@]4(C)CC[C@@H]32)C1 | 11.6 µM | 27.2 µM | 3.54 µM | 15 µM | 5.22 µM | 19.4 µM | 4.37 µM | 15.2 µM | 3.91 µM | 30.3 µM | 2.78 µM | 16 µM | 2.47 µM | 5.63 µM | 3.56 µM | 13.9 µM | 2.74 µM | 6.83 µM | 6.42 µM | 21.4 µM
